# Measured values as given in patent US7947657B2, “Method for selective inhibition of human N-myc gene in N-myc expressing tumors through antisense and antigen peptido-nucleic acids (PNA)” (Universita Degli Studi Di Parma, priority 2003, dated 2011).
# “Also recorded” adds a separate entry of the source.
# Tests used:
# GI-LI-N cells [1] = assay: cell growth/proliferation test, cell counting and vitality by tryphan blue exclusion; assay type: cell-based, human; conditions: for maximum inhibition effect on cell growth / inhibition effect in proliferation tests: GI-LI-N cells; for maximum inhibition effect on cell growth: 48 hours after treatment
# Experimental: (§1) In order to show the effectiveness of the peptide nucleic acids selected by the Applicant, the latter has carried out experimental tests by selecting four neuroblastoma cell lines: GI-LI-N, IMR-32 where N-myc gene is amplified and overexpressed; and GI-CA-N, GI-ME-N where N-myc gene is not amplified and is not expressed.
# (§2) In threefold tests using plates with 24 wells, 1.0×10^5 cells have been introduced into the first wells with 0.5 ml of RPMI1640 containing 10% of FBS and 2 mM of […].
# (§3) Cells have been incubated for 24 hours so as to let them adhere to the base of the wells.
# (§4) Then, in order to assess the optimal concentration for cell growth inhibition, peptide nucleic acid has been added to GI-LI-N cells in concentration of 10, 20, 40 and 60 μM for 5′-UTR antisense PNA, whereas for sense and antisense anti-gene PNAs in concentrations of 1, 2, 5, 10 and 20 μM on GI-LI-N and IMR-32 cells-
# (§5) Then, in order to assess the effects of the treatments, cells have been collected and counted 24, 48 and 72 hours after treatment.
# (§6) Cells counting and vitality has been determined using colorimetric exclusion method (tryphan blue dye).
# N-MYC (protein) = assay: production of N-MYC protein by Western Blotting in GI-LI-N cell line; assay type: cell-based, human; conditions: for N-MYC protein level (Western Blotting): 20 μM, GI-LI-N
# GI-CA-N cells [2] = assay: cell growth/proliferation test, cell counting and vitality by tryphan blue exclusion; assay type: cell-based, human; conditions: same conditions
# Experimental: as §1, §2, §3
# In order to assess the specificity of sense and antisense anti-gene PNAs, GI-ME-N and GI-CA-N (in which N-myc gene is not amplified and is not […] for sense anti-gene PNA).
# as §5, §6
# GI-LI-N cells [3] = assay: cell entry and intracellular localization by fluorescence microscopy of rhodamine-conjugated PNA; assay type: cell-based, human
# Experimental: (§7) In order to assess the ability of antisense PNAs and of anti-gene PNAs to get into human neuroblastoma cells and to analyze the subsequent intracellular localization, the Applicant has used four cell lines GI-LI-N and IMR-32, GI-CA-N and GI-ME-N- and has treated them for 30 minutes to 24 hours with 20 μM of antisense or sense PNA conjugated with rhodamine in 5′. Anti-gene PNAs were further conjugated with NLS in 3′.
# GI-CA-N cells [4] = assay: as above; assay type: cell-based, human
# Experimental: as §7
# GI-LI-N cells [5] = assay: flow cytometric cell cycle analysis on GI-LI-N cells; assay type: cell-based, human
# Text: Moreover, the number of cells in sub-G1 phase with a hypodiploic DNA content (lower number of chromosomes than diploid DNA, i.e. 2n) increases from 3 to 22%.
# GI-LI-N cells [6] = assay: microscopic analysis of morphologic changes/differentiation of GI-LI-N cells; assay type: cell-based, human; conditions: 20 μM
# Experimental: In order to assess the differentiation of GI-LI-N cells towards neuronal cells, said cell line has been treated with 20 μM antisense PNA, whereby morphologic changes have been detected by means of microscopic analysis.
# Microscope assessment has been carried 36 and 48 hours after GI-LI-N cell growth in the presence or absence of 20 μM antisense PNA.
# IMR-32 cells [7] = assay: cell growth/proliferation test, cell counting and vitality by tryphan blue exclusion; assay type: cell-based, human; conditions: 10 μM
# Experimental: as §1, §2, §3, §4, §5, §6
# IMR-32 cells [8] = assay: cytofluorimetric cell cycle analysis in IMR-32 cells; assay type: cell-based, human; conditions: 10 μM; for cells in G2/M / cells in Go/G1 / cells in S phase: IMR-32
# Experimental: A cytofluorimetric analysis in IMR-32 cells 24 and 48 hours after the treatment with sense anti-gene PNA in a concentration of 10 μM, induced a cell accumulation in Go/G1 (from 39% to 53% after 24 hours; from 31% to 53% after 48 hours) and decrease in G2/M (from 17% to 6% after 24 hours; from 25% to 9% after 48 hours) and S phase (from 45 to 41% after 24 hours; from 44% to 39% after 48 hours).
# HT29 cells = assay: cell growth/proliferation test in colon carcinoma cells; assay type: cell-based; conditions: 10 μM
# Experimental: (§8) The treatment with 10 μM sense anti-gene PNA has also been carried out in HT29 cells (deriving from colon carcinoma) and in HeLa cells (deriving from cervical carcinoma) expressing N-myc gene.
# N-MYC protein = assay: production of N-MYC protein by Western Blotting in IMR-32 cell line; assay type: cell-based, human; conditions: 10 μM
# Experimental: In further tests on sense anti-gene PNA, the production of N-MYC protein was assessed by using Western Blotting in IMR-32 cell line after 3 hours of treatment with 10 μM sense anti-gene PNA. A reduction of 50% of protein level has been detected after 3 hours of treatment with sense anti-gene PNA.
# HeLa cells = assay: cell growth/proliferation test in cervical carcinoma cells; assay type: cell-based; conditions: 10 μM
# Experimental: as §8
# N-myc transcript = assay: production of N-myc transcript by PCR of cDNA from GI-LI-N cells; assay type: cell-based, human; conditions: 10 μM, 30 PCR cycles, easily detected in untreated cells
# Experimental: The production of N-myc transcript was assessed before and after […] treatment with 10 μM sense anti-gene PNA by amplification in PCR of cDNA obtained from 250 ng of mRNA of GI-LI-N cells. The following primers have been used: sense SEQ ID NO: 5 (ExonE 2, by 2366); antisense SEQ ID NO: 6(Exon 3, by 5095) (Genbank M13241). PCR has been carried out with 30 reaction cycles.
# GI-ME-N cells = assay: cell growth/proliferation test, cell counting and vitality by tryphan blue exclusion; assay type: cell-based, human; conditions: 10 μM; GI-ME-N cells (N-myc not amplified, not expressed); same conditions
# Experimental: as §1, §2, §3
# In order to assess the specificity of sense and antisense anti-gene PNAs, GI-ME-N and GI-CA-N (in which N-myc gene is not amplified and is not expressed) have been treated with sense and antisense anti-gene PNA in a concentration of […] (optimal concentration selected for sense anti-gene PNA).
# as §5, §6
# [9] = same test conditions used for sense anti-gene PNA
# [10] = 10 μM, cell line not restated (GI-LI-N)
substance,measurement,setting,value
"antisense PNA: antisense peptide nucleic acid (bp 135-150, SEQ ID NO: 1) complementary to one sequence in 5′-UTR region of N-myc gene (antisense TCCACCCAGCGCGTCC; all peptide nucleic acid (PNA))",maximum inhibition effect on cell growth,GI-LI-N cells [1]; 20 μM,70%
same,N-MYC protein level (Western Blotting),N-MYC (protein); after 24 hours,evident reduction
same,N-MYC protein level (Western Blotting),N-MYC (protein); after 72 hours,reduction decreases
same,inhibition effect on cell growth,"GI-CA-N cells [2]; 20 μM, GI-CA-N cells (N-myc not amplified)",do not show any inhibition effect
same,time after treatment at which intracytoplasmatic fluorescence can already be measured,"GI-LI-N cells [3]; 20 μM PNA conjugated with rhodamine in 5′, GI-LI-N",≤ 30 min
same,time to maximum fluorescence intensity,"GI-LI-N cells [3]; 20 μM rhodamine-conjugated PNA, GI-LI-N, level then constant for 24 hours",6 h
same,intracellular localization of fluorescence,"GI-LI-N cells [3]; 20 μM rhodamine-conjugated PNA, cell lines of b80",High intracytoplasmatic values
same,time after treatment at which intracytoplasmatic fluorescence can already be measured,GI-CA-N cells [4]; 20 μM PNA conjugated with rhodamine in 5′,≤ 30 min
same,time to maximum fluorescence intensity,"GI-CA-N cells [4]; 20 μM rhodamine-conjugated PNA, level then constant for 24 hours",6 h
same,cells in sub-G1 phase with hypodiploic DNA content,"GI-LI-N cells [5]; 20 μM, GI-LI-N, 36 hours after treatment, from 3 untreated",22%
same,cells in G2,"GI-LI-N cells [5]; 20 μM, GI-LI-N, 36 hours after treatment, from 13 untreated",6%
same,cells in G0/G1,"GI-LI-N cells [5]; 20 μM, GI-LI-N, 36 hours after treatment, from 34% untreated",57%
same,cells in S phase,"GI-LI-N cells [5]; 20 μM, GI-LI-N, 36 hours after treatment, from 53% untreated",37%
same,morphologic changes (microscope),GI-LI-N cells [6]; after 36 hours,less uniform distribution than control cells
same,morphologic changes (microscope),GI-LI-N cells [6]; after 48 hours,tend to form small cell aggregates
"antisense anti-gene PNA: antisense anti-gene PNA (SEQ ID NO: 4) complementary to a sequence of exon 2 N-myc gene, NLS-conjugated (antisense AGATCATGCCCGGCAT; all peptide nucleic acid (PNA); SV40 nuclear localization signal peptide conjugated at 3' end, further chemistry not fully specified)",inhibition effect in proliferation tests,IMR-32 cells [7]; IMR-32 cells,have not shown any inhibition effect; also recorded: do not show any inhibition effect
same,inhibition effect in proliferation tests,GI-LI-N cells [1]; 10 μM,have not shown any inhibition effect; also recorded: do not show any inhibition effect
"mutated anti-gene PNA: mutated PNA containing the substitution of three bases (SEQ ID NO: 7), specificity control for sense anti-gene PNA (GTGCCGAGCATGGTCT; all peptide nucleic acid (PNA))",inhibition effect in cell vitality,IMR-32 cells [7]; [9],No inhibition effect
same,inhibition effect in cell cycle,IMR-32 cells [8]; [9],No inhibition effect
same,inhibition effect in proliferation tests,HT29 cells,have not shown any inhibition effect
same,inhibition effect in the amount of N-MYC protein,N-MYC protein; [9],No inhibition effect
same,inhibition effect in proliferation tests,HeLa cells,have not shown any inhibition effect
"mutated antisense PNA: mutated PNA containing the substitution of three bases (SEQ ID NO: 2), specificity control for antisense PNA (CCCACTCAGCGCGCCC; all peptide nucleic acid (PNA))",inhibition effect in cell vitality,GI-LI-N cells [1]; [10],no inhibition effect
same,inhibition effect in proliferation tests,GI-LI-N cells [1]; 20 μM,have not shown any inhibition effect
same,inhibition effect in the amount of N-MYC protein,N-MYC (protein); [10],no inhibition effect
same,inhibition effect in cell cycle,GI-LI-N cells [5]; [10],no inhibition effect
"sense anti-gene PNA: sense anti-gene PNA (SEQ ID NO: 3) complementary to a sequence of exon 2 N-myc gene, NLS-conjugated (ATGCCGGGCATGATCT; all peptide nucleic acid (PNA); SV40 nuclear localization signal peptide conjugated at 3' end, further chemistry not fully specified)",maximum inhibition effect on cell growth,"IMR-32 cells [7]; IMR-32 cells, 48 hours after treatment",80%
same,maximum inhibition effect on cell growth,GI-LI-N cells [1]; 10 μM,90%
same,PCR product of N-myc transcript,N-myc transcript,cannot be detected
same,cells in G2/M,"IMR-32 cells [8]; after 24 hours, from 17% untreated",6%
same,cells in Go/G1,"IMR-32 cells [8]; after 24 hours, from 39% untreated",53%
same,cells in S phase,"IMR-32 cells [8]; after 24 hours, from 45 untreated",41%
same,cells in G2/M,"IMR-32 cells [8]; after 48 hours, from 25% untreated",9%
same,cells in Go/G1,"IMR-32 cells [8]; after 48 hours, from 31% untreated",53%
same,cells in S phase,"IMR-32 cells [8]; after 48 hours, from 44% untreated",39%
same,inhibition effect on cell growth,"GI-CA-N cells [2]; 10 μM, GI-CA-N cells (N-myc not amplified, not expressed)",do not show any inhibition effect
same,maximum inhibition effect on cell growth,HT29 cells; 48 hours after treatment,70%
same,reduction of N-MYC protein level (Western Blotting),"N-MYC protein; IMR-32, after 3 hours of treatment",50%
same,maximum inhibition effect on cell growth,HeLa cells; 24 hours after treatment,70%
same,inhibition effect on cell growth,GI-ME-N cells,do not show any inhibition effect
